Active and inactive are the calls of the source. The calls are words filed in the database; no cut-off is given here.
Legend:
[1] = Cytotoxicity against human NHBE-T cells assessed as reduction in cell growth measured after 5 days by CellTiter-Glo assay; assay type: toxicity, cell-based; settings: NHBE-T cells, time 5 day
[2] = (§1) Cytotoxicity against quiescent human PBMC cells assessed as reduction in cell growth measured after 5 days by CellTiter-Glo assay; assay type: toxicity, cell-based; settings: quiescent PBMC, time 5 day
[3] = tested on: SARS-CoV-2; assay: Antiviral activity against SARS-CoV-2 Omicron BA.2 infected in human A549-hACE2-TMPRSS2 cells assessed as fold reduction in viral replication pre-incubated with compound followed by viral infection measured after 72 hrs by ELISA assay relative to SARS-CoV-2 WA1; assay type: functional, Severe acute respiratory syndrome coronavirus 2
[4] = tested on: SARS-CoV-2; assay: Antiviral activity against SARS-CoV-2 Omicron BA.2.12.1 infected in human A549-hACE2-TMPRSS2 cells assessed as fold reduction in viral replication pre-incubated with compound followed by viral infection measured after 72 hrs by ELISA assay relative to SARS-CoV-2 WA1; assay type: functional, Severe acute respiratory syndrome coronavirus 2
[5] = tested on: SARS-CoV-2; assay: Antiviral activity against SARS-CoV-2 Omicron BA.4 infected in human A549-hACE2-TMPRSS2 cells assessed as fold reduction in viral replication pre-incubated with compound followed by viral infection measured after 72 hrs by ELISA assay relative to SARS-CoV-2 WA1; assay type: functional, Severe acute respiratory syndrome coronavirus 2
[6] = tested on: SARS-CoV-2; assay: Antiviral activity against SARS-CoV-2 Omicron BA.5 infected in human A549-hACE2-TMPRSS2 cells assessed as fold reduction in viral replication pre-incubated with compound followed by viral infection measured after 72 hrs by ELISA assay relative to SARS-CoV-2 WA1; assay type: functional, Severe acute respiratory syndrome coronavirus 2
[7] = tested on: SARS-CoV-2; assay: Antiviral activity against SARS-CoV-2 Omicron BF.5 infected in human A549-hACE2-TMPRSS2 cells assessed as fold reduction in viral replication pre-incubated with compound followed by viral infection measured after 72 hrs by ELISA assay relative to SARS-CoV-2 WA1; assay type: functional, Severe acute respiratory syndrome coronavirus 2
[8] = tested on: PC-3; assay: Inhibition of mitochondrial protein synthesis in human PC-3 cells at 100 uM incubated for 5 days; assay type: functional, cell-based; settings: time 5.0 day
[9] = tested on: PC-3; assay: Inhibition of mitochondrial respiration in human PC-3 cells at 100 uM incubated for 3 days; assay type: functional, cell-based; settings: time 3.0 day
[10] = Lipophilicity, logD of compound; assay type: physicochemical; settings: octanol/water
[11] = Apparent permeability of the compound from apical to basolateral side in human Caco-2 cells incubated for 2 hrs by LC-MS/MS analysis; assay type: ADME, cell-based; settings: Caco-2
[12] = Thermodynamic aqueous solubility at pH 7 measured at 24 hrs by UPLC analysis; assay type: physicochemical; settings: aqueous solution, read-out: Therm_solubility
[13] = tested on: Huh-7; assay: Cytotoxicity against human Huh-7 cells assessed as reduction in cell growth measured after 5 days by CellTiter-Glo assay; assay type: toxicity, cell-based; settings: huh-7, 120 h, time 5 day
[14] = tested on: MRC5; assay: Cytotoxicity against human MRC5 cells assessed as reduction in cell growth measured after 5 days by CellTiter-Glo assay; assay type: toxicity, cell-based; settings: mrc5, 120 h, time 5 day
[15] = Drug metabolism in human NHBE-T cells assessed as fold increase in Nucleotide triphosphate metabolite formation at 10 uM measured after 48 hrs by LC-MS analysis; assay type: ADME, cell-based
[16] = target: T1, Adenosine deaminase (Homo sapiens) (UniProt P00813); assay: Inhibition of human recombinant ADA1-mediated drug metabolism at 100 uM incubated for 58 mins by absorbance based analysis
T1 sequence (whole entry): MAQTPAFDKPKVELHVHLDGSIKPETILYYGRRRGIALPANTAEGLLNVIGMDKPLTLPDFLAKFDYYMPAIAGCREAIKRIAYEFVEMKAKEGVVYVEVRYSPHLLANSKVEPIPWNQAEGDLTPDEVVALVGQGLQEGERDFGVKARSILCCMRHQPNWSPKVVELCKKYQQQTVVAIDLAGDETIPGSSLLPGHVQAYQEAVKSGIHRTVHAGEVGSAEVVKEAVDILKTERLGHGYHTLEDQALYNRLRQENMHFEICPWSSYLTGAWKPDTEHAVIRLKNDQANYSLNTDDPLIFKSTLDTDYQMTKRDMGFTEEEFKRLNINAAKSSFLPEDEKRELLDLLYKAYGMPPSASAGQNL

[17] = AUC(0 to 24 hrs) in African green monkey infected with SARS-CoV-2 assessed as prodrug conversion by measuring (2R,3R,4S,5R)-2-(4-aminopyrrolo[2,1-f][1,2,4]triazin-7-yl)-3,4-dihydroxy-5-(hydroxymethyl)tetrahydrofuran-2-carbonitrile at 7.5 mg/kg, iv qd measured after 6 days by LC-MS/MS analysis; assay type: ADME, organism-based, Severe acute respiratory syndrome coronavirus 2; design: dose 7.5 mg/kg, time 6 day, route iv; settings: in vivo
[18] = Stability of compound in rat gastrointestinal S9 fraction assessed as half life at pH 7.4 measured upto 120 mins by LC-MS/MS analysis; assay type: ADME, subcellular, Gastrointestinal tract
[19] = Stability of compound in human liver S9 fraction assessed as half life at pH 7.4 measured upto 90 mins by LC-MS/MS analysis; assay type: ADME, subcellular
[20] = tested on: CES1c; assay: Stability of compound assessed as human recombinant CES1c-mediated compound hydrolysis by measuring half life at pH 7.4 using oseltamivir as substrate measured upto 120 mins by LC-MS/MS analysis; assay type: ADME; settings: pH 7.4, probe oseltamivir
[21] = Oral bioavailability in dog assessed as prodrug conversion by measuring (2R,3R,4S,5R)-2-(4-aminopyrrolo[2,1-f][1,2,4]triazin-7-yl)-3,4-dihydroxy-5-(hydroxymethyl)tetrahydrofuran-2-carbonitrile at […] administered in solid form measured upto 24 hrs by LC-MS/MS analysis; assay type: ADME, organism-based, Canis lupus familiaris; settings: in vivo
[22] = tested on: PBMC; assay: as §1; assay type: toxicity, cell-based; settings: pbmc, 120 h, time 5 day
[23] = Half life in African green monkey assessed as prodrug conversion by measuring (2R,3R,4S,5R)-2-(4-aminopyrrolo[2,1-f][1,2,4]triazin-7-yl)-3,4-dihydroxy-5-(hydroxymethyl)tetrahydrofuran-2-carbonitrile at […], po measured upto 24 hrs by LC-MS/MS analysis; assay type: ADME, organism-based; settings: chlorocebus sabaeus, in vivo
[24] = AUC(0 to 24 hrs) in cynomolgus monkey assessed as prodrug conversion by measuring (2R,3R,4S,5R)-2-(4-aminopyrrolo[2,1-f][1,2,4]triazin-7-yl)-3,4-dihydroxy-5-(hydroxymethyl)tetrahydrofuran-2-carbonitrile at 11.7 mg/kg, po measured upto 24 hrs by LC-MS/MS analysis; assay type: ADME, organism-based, Macaca fascicularis; design: dose 11.7 mg/kg, time < 24 hrs, route po; settings: in vivo
[25] = tested on: SARS-CoV-2; assay: Antiviral activity against SARS-CoV-2 infected in African green monkey assessed as reduction in genomic RNA load in BALF at 60 to 120 mg/kg, po qd administered for 6 days starting from 8 hrs post infection by RT-qPCR analysis; assay type: functional, organism-based; settings: Severe acute respiratory syndrome coronavirus 2, dose lower 60.0 mg/kg, dose upper […], time 6.0 day
[26] = tested on: SARS-CoV-2; assay: Antiviral activity against SARS-CoV-2 infected in African green monkey assessed as reduction in viral genomic RNA load in throat swabs at 60 to 120 mg/kg, po qd administered for 2 days starting from 8 hrs post infection by RT-qPCR analysis; assay type: functional, organism-based; settings: Severe acute respiratory syndrome coronavirus 2, dose lower 60.0 mg/kg, dose upper […], time 2.0 day
[27] = tested on: SARS-CoV-2; assay: Antiviral activity against SARS-CoV-2 infected in African green monkey assessed as reduction in viral titer in nasal swabs at 60 to 120 mg/kg, po qd administered for 4 days starting from 8 hrs post infection by PFA assay; assay type: functional, organism-based; settings: Severe acute respiratory syndrome coronavirus 2, dose lower 60.0 mg/kg, dose upper […], time 4.0 day

SMILES	CC50 at 120 h [1] [µM]	fold change (FC) [3]	fold change (FC) [4]	fold change (FC) [5]	fold change (FC) [6]	fold change (FC) [7]	inhibition [8]	inhibition [9]	Papp A→B at 2 h [11] [×10⁻⁶ cm/s]	solubility thermodynamic at 24 h [12] [µg/mL]	CC50 [13] [µM]	CC50 [14] [µM]	Drug metabolism [15]	inhibition [16]	further results
CCC(CC)COC(=O)[C@H](C)N[P@](=O)(OC[C@H]1O[C@@](C#N)(c2ccc3c(N)ncnn23)[C@H](O)[C@@H]1O)Oc1ccccc1	> 50	0.23	0.2	0.15	0.66	0.94									CC50 at 120 h [2]: > 20 µM
N#C[C@@]1(c2ccc3c(N)ncnn23)O[C@H](CO)[C@@H](O)[C@H]1O [GS-441524]							inactive	inactive	0.1	≤ 70	> 89	> 89	Metabolite_Detected	Active	logD [10]: < 0.3; fold change (FC) [15]: > 3; AUC [17]: ~ 55 uM.hr
CC(C)C(=O)OC[C@H]1O[C@@](C#N)(c2ccc3c(N)ncnn23)[C@H](O)[C@@H]1O [OBELDESIVIR]	> 50	0.37	0.29	0.26	0.83	0.8	inactive	inactive	1	≥ 1000	> 44	> 44	Metabolite_Detected	Active	logD ([10]; read-out: logD): < 0.9; half-life [18]: > 2 min; half-life at […] [19]: < 2 min; half-life [20]: 4.3 min; F [21]: 67%; CC50 [22]: > 100 µM; t1/2 [23]: 191 min; AUC [24]: 21.6 µM·h; Activity [25]: Active; Activity [26]: Active; Activity [27]: Active

From ChEMBL document CHEMBL5321279 (J Med Chem, 2023)
